What is called IC50 is the concentration needed to halve the response being measured. A higher IC50 goes with weaker potency in that assay.

The structures appear in SMILES notation. *1 amine or outer side, *2 acyl side, *3 side chain or, on linkers, in order; H or OH if unused. Where a SMILES comes first, the peptide text is derived from it. Bridges are numbered along the chain shown (N, C = ends). [ ]: non-standard residue; d: D form. X1 = O=C(O)/C=C/[C@H](N[*:1])C(=O)[*:2]

IC50 and LED data for 8 molecules are collected here from ChEMBL document CHEMBL5038633 (J Med Chem, 2022).

The target in assay [1] is Sodium channel protein type 8 subunit alpha (Homo sapiens, UniProt Q9UQD0). Kind of assay: Inhibition of human Nav1.6 stably expressed in cells with train pulses to -20 mV at 0.1 Hz and holding potential of -85 mV by whole-cell Qube-automated patch clamp assay. It is filed as cell-based.
Assay [2] has as its target Sodium channel protein type 4 subunit alpha (Homo sapiens, UniProt P35499). Kind of assay: Inhibition of human Nav1.4 stably expressed in cells with train pulses to -20 mV at 0.1 Hz and holding potential of -95 mV by whole-cell Qube-automated patch clamp assay. The class given is cell-based. On the technique in general: Patch clamp records ionic current or voltage across a cell membrane.

Assay [3] addresses Sodium channel protein type 9 subunit alpha (Homo sapiens, UniProt Q15858). Kind of assay: Inhibition of human Nav1.7 stably expressed in cells with train pulses to -20 mV at 0.1 Hz and holding potential of -95 mV by Qube-automated patch clamp assay. The class given is cell-based.
Assay [4] can be described thus: Inhibition of mast cell degranulation in Wistar Han rat peritoneal lavage mast cells assessed as inhibition histamine release by measuring lowest concentration at which histamine release observed measured after 30 mins. It is filed as functional. Conditions: 0.5 h.

Chain of Sodium channel protein type 4 subunit alpha (P35499 whole entry): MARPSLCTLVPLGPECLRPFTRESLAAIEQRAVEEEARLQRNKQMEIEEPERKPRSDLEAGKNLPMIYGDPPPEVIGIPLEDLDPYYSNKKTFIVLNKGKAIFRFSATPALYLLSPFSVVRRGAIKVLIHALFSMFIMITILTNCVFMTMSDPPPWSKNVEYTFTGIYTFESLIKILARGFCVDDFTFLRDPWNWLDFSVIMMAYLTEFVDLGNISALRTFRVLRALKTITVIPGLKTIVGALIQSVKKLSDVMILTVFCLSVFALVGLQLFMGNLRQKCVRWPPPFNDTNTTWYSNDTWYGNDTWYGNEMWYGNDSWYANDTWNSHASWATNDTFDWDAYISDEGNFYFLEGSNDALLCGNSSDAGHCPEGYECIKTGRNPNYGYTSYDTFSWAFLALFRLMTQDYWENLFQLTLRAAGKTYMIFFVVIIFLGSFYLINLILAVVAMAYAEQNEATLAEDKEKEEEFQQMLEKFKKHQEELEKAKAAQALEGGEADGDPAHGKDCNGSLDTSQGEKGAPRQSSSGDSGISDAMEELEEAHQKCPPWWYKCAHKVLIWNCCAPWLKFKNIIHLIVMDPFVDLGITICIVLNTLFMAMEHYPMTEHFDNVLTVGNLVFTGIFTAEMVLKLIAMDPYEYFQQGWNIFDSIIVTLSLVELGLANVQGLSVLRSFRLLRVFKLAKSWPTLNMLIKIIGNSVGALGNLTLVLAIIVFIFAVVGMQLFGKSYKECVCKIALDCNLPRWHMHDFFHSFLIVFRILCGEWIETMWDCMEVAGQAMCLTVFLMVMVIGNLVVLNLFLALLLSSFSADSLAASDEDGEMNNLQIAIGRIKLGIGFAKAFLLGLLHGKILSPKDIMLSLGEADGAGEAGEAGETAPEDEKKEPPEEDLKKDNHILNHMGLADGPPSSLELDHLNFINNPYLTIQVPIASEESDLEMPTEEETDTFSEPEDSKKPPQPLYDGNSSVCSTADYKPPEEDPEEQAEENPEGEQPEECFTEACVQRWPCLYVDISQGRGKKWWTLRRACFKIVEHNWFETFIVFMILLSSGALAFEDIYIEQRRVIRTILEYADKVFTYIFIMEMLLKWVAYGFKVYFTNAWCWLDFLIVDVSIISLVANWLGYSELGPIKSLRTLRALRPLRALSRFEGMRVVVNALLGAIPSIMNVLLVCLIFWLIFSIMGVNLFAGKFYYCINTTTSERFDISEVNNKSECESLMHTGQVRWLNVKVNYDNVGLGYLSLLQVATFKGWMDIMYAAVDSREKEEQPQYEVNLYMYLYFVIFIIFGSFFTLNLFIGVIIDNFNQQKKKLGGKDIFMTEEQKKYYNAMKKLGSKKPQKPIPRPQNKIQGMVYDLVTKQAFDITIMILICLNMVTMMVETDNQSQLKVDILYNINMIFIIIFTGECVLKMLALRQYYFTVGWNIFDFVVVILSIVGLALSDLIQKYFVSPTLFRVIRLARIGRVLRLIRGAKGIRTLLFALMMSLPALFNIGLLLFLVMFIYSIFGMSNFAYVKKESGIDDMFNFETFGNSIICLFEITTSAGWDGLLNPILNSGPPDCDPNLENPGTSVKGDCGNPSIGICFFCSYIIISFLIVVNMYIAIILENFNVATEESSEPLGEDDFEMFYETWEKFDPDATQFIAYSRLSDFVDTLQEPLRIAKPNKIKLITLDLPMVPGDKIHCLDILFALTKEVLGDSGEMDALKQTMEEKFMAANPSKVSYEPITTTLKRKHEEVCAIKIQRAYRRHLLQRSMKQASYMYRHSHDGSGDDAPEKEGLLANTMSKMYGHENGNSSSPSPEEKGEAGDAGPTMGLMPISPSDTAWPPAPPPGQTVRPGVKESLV
Chain of Sodium channel protein type 8 subunit alpha (Q9UQD0 whole entry): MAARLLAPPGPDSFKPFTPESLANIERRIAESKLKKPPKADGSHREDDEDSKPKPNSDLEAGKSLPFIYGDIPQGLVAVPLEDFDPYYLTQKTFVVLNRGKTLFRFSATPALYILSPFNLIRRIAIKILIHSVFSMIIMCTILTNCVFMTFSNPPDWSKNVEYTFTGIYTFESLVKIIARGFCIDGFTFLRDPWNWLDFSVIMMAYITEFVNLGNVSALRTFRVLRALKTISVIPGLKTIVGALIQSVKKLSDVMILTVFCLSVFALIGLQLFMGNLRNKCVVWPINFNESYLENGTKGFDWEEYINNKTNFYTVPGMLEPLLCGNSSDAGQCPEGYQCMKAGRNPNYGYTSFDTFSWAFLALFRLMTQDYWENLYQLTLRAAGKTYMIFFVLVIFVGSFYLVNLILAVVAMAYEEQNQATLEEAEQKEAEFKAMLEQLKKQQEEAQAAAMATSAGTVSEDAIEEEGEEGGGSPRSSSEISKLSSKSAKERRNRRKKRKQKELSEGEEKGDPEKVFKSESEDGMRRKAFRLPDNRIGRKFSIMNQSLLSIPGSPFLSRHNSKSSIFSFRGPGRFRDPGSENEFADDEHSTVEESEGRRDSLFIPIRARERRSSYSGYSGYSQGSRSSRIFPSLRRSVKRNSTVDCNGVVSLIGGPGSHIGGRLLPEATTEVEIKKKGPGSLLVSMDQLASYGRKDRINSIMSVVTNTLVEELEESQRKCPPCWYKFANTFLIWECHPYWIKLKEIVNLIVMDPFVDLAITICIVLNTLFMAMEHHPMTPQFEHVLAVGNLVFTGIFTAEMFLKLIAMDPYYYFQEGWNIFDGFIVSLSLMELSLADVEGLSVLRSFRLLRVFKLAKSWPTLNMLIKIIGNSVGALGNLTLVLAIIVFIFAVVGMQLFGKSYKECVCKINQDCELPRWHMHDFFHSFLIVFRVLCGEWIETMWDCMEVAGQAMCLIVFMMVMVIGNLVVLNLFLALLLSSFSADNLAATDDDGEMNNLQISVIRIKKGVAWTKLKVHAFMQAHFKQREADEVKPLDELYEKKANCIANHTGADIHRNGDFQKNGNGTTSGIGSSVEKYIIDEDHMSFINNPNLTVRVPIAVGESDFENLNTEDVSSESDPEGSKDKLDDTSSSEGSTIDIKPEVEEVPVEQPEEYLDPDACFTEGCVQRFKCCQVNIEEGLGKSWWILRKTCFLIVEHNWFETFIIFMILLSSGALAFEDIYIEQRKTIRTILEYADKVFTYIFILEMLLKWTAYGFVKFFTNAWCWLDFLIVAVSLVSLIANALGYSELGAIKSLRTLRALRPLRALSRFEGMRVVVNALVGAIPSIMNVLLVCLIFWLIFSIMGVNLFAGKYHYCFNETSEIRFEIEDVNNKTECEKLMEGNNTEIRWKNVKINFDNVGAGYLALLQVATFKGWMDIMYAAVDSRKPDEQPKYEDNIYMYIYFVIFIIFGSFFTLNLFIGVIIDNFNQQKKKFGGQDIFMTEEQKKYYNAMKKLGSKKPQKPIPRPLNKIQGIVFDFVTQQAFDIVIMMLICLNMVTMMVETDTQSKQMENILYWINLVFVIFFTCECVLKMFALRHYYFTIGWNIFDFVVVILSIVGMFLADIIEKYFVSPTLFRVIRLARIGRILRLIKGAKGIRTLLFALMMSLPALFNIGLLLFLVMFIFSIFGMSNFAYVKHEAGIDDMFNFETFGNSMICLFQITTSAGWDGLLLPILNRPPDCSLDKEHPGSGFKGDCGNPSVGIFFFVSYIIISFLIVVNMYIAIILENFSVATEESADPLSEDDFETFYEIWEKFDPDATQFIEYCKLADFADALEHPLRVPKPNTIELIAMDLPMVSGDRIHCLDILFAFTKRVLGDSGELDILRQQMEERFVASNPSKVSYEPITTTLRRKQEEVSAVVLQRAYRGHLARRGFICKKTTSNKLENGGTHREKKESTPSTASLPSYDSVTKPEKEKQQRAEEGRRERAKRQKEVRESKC

As to `CC(=O)N[C@H]1CSSC[C@@H]2NC(=O)[C@@H]3CSSC[C@@H](C(=O)N[C@@H](CCCCN)C(=O)N[C@@H](CCCCN)C(=O)N[C@@H](CCCCN)C(=O)N[C@@H](CC(C)C)C(=O)N[C@@H](Cc4c[nH]c5ccccc45)C(N)=O)NC(=O)[C@H](Cc4c[nH]c5ccccc45)NC(=O)[C@H](CC(C)C)NC(=O)[C@H](CCCCN)NC(=O)[C@H](CSSC[C@H](NC(=O)[C@@H]4CCCN4C(=O)[C@H](CCCCN)NC(=O)[C@H](CC(C)C)NC(=O)[C@H](Cc4ccccc4)NC(=O)[C@H](CCC(=O)O)NC(=O)[C@H](CCC(N)=O)NC1=O)C(=O)N[C@@H](CC(=O)O)C(=O)N[C@@H](CCC(=O)O)C(=O)N[C@@H](CCC(=O)O)C(=O)N[C@@H](CCCNC(=N)N)C(=O)N[C@@H](CCCCN)C(=O)N3)NC(=O)[C@H](C(C)C)NC(=O)[C@H](CC(C)C)NC(=O)CNC(=O)[C@H](CCC(=O)O)NC2=O` (Ac-CQEFLKPCDEERKCCEGLVCKLWCKKKLW-NH2; disulfide 1-15, 8-20, 14-24), the IC50 is above 17 µM in assay [1], above 17 µM in assay [2] and 0.225 µM in assay [3]. Also, the LED in assay [4] was 10 µM.

`CC(=O)N[C@H]1CSSC[C@@H]2NC(=O)[C@@H]3CSSC[C@@H](C(=O)N[C@@H](CCCCN)C(=O)N[C@@H](CCCCN)C(=O)N[C@@H](CCCCN)C(=O)N[C@@H](CC(C)C)C(=O)N[C@@H](Cc4c[nH]c5ccccc45)C(N)=O)NC(=O)[C@H](Cc4c[nH]c5ccccc45)NC(=O)[C@H](CC(C)C)NC(=O)[C@H](C(C)C)NC(=O)[C@H](CSSC[C@H](NC(=O)[C@@H]4CCCN4C(=O)[C@H](CCCCN)NC(=O)[C@H](CC(C)C)NC(=O)[C@H](Cc4ccccc4)NC(=O)[C@H](CCC(=O)O)NC(=O)[C@H](CCC(N)=O)NC1=O)C(=O)N[C@@H](CC(=O)O)C(=O)N[C@@H](CCCCN)C(=O)N[C@@H](CCC(=O)O)C(=O)N[C@@H](CCCNC(=N)N)C(=O)N[C@@H](CCCCN)C(=O)N3)NC(=O)[C@H](CCC(=O)O)NC(=O)[C@H](CC(C)C)NC(=O)CNC(=O)[C@H](CCC(=O)O)NC2=O` (Ac-CQEFLKPCDKERKCCEGLECVLWCKKKLW-NH2; disulfide 1-15, 8-20, 14-24): the figures for the half-maximal inhibitory concentration (IC50) in assay [1], in assay [2] and in assay [3] were above 17 µM, above 17 µM and 0.253 µM, respectively. Further, the LED in assay [4] amounted to 10 µM.

For the molecule `CC(=O)N[C@H]1CSSC[C@@H]2NC(=O)[C@@H]3CSSC[C@@H](C(=O)N[C@@H](CCCCN)C(=O)N[C@@H](CCCCN)C(=O)N[C@@H](CCCCN)C(=O)N[C@@H](CC(C)C)C(=O)N[C@@H](Cc4c[nH]c5ccccc45)C(N)=O)NC(=O)[C@H](Cc4c[nH]c5ccccc45)NC(=O)[C@H](CC(C)C)NC(=O)[C@H](CCCCN)NC(=O)[C@H](CSSC[C@H](NC(=O)[C@@H]4CCCN4C(=O)[C@H](CCCCN)NC(=O)[C@H](CC(C)C)NC(=O)[C@H](Cc4ccccc4)NC(=O)[C@H](CCC(=O)O)NC(=O)[C@H](CCC(N)=O)NC1=O)C(=O)N[C@@H](CC(=O)O)C(=O)N[C@@H](CO)C(=O)N[C@@H](CCC(=O)O)C(=O)N[C@@H](CCCNC(=N)N)C(=O)N[C@@H](CCCCN)C(=O)N3)NC(=O)[C@H](CCC(=O)O)NC(=O)[C@H](CC(C)C)NC(=O)CNC(=O)[C@H](CCC(=O)O)NC2=O` (Ac-CQEFLKPCDSERKCCEGLECKLWCKKKLW-NH2; disulfide 1-15, 8-20, 14-24), the half-inhibitory concentration (IC50) in assay [1] is above 17 µM; in assay [2] it was above 17 µM; in assay [3], 0.113 µM. The LED in assay [4] was determined as 3.3 µM.

With `CC(=O)N[C@H]1CSSC[C@@H]2NC(=O)[C@@H]3CSSC[C@@H](C(=O)N[C@@H](CCCCN)C(=O)N[C@@H](CCCCN)C(=O)N[C@@H](CCCCN)C(=O)N[C@@H](CC(C)C)C(=O)N[C@@H](Cc4c[nH]c5ccccc45)C(N)=O)NC(=O)[C@H](Cc4c[nH]c5ccccc45)NC(=O)[C@H](CC(C)C)NC(=O)[C@H](CCCNC(=N)N)NC(=O)[C@H](CSSC[C@H](NC(=O)[C@@H]4CCCN4C(=O)[C@H](CCCCN)NC(=O)[C@H](CC(C)C)NC(=O)[C@H](Cc4ccccc4)NC(=O)[C@H](CCC(=O)O)NC(=O)[C@H](CCC(N)=O)NC1=O)C(=O)N[C@@H](CC(=O)O)C(=O)N[C@@H](CO)C(=O)N[C@@H](CCC(=O)O)C(=O)N[C@@H](CCCNC(=N)N)C(=O)N[C@@H](CCCCN)C(=O)N3)NC(=O)[C@H](CCC(=O)O)NC(=O)[C@H](CC(C)C)NC(=O)CNC(=O)[C@H](CCC(=O)O)NC2=O` (Ac-CQEFLKPCDSERKCCEGLECRLWCKKKLW-NH2; disulfide 1-15, 8-20, 14-24), the results for the half-inhibitory concentration (IC50) in assay [1], in assay [2] and in assay [3] were above 17 µM, above 17 µM and 0.091 µM, respectively. Also, the LED in assay [4] turned out to be 3.3 µM.

For the molecule `CC(=O)N[C@H]1CSSC[C@@H]2NC(=O)[C@@H]3CSSC[C@@H](C(=O)N[C@@H](CCCCN)C(=O)N[C@@H](CCCCN)C(=O)N[C@@H](CCCCN)C(=O)N[C@@H](CC(C)C)C(=O)N[C@@H](Cc4c[nH]c5ccccc45)C(N)=O)NC(=O)[C@H](Cc4c[nH]c5ccccc45)NC(=O)[C@H](CC(C)C)NC(=O)[C@H](CCCNC(=N)N)NC(=O)[C@H](CSSC[C@H](NC(=O)[C@@H]4CCCN4C(=O)[C@H](CCCCN)NC(=O)[C@H](CC(C)C)NC(=O)[C@H](Cc4ccccc4)NC(=O)[C@H](CCC(=O)O)NC(=O)[C@H](CCC(N)=O)NC1=O)C(=O)N[C@@H](CC(=O)O)C(=O)N[C@@H](CO)C(=O)N[C@@H](CCC(=O)O)C(=O)N[C@@H](CCCNC(=N)N)C(=O)N[C@@H](CCCCN)C(=O)N3)NC(=O)[C@H](C(C)C)NC(=O)[C@H](CC(C)C)NC(=O)CNC(=O)[C@H](CCC(=O)O)NC2=O` (Ac-CQEFLKPCDSERKCCEGLVCRLWCKKKLW-NH2; disulfide 1-15, 8-20, 14-24), the concentration for half-maximal inhibition (IC50) in assay [1] is 4.83 µM; in assay [2], 4.14 µM; in assay [3], 0.027 µM. In addition, the LED in assay [4] amounted to 10 µM.

In the case of `CC(=O)N[C@H]1CSSC[C@@H]2NC(=O)[C@@H]3CSSC[C@@H](C(=O)N[C@@H](CCCCN)C(=O)N[C@@H](CCCCN)C(=O)N[C@@H](CCCCN)C(=O)N[C@@H](CC(C)C)C(=O)N[C@@H](Cc4c[nH]c5ccccc45)C(N)=O)NC(=O)[C@H](Cc4c[nH]c5ccccc45)NC(=O)[C@H](CC(C)C)NC(=O)[C@H](CCCCN)NC(=O)[C@H](CSSC[C@H](NC(=O)[C@@H]4CCCN4C(=O)[C@H](C)NC(=O)[C@H](CC(C)C)NC(=O)[C@H](Cc4ccccc4)NC(=O)[C@H](CCCCN)NC(=O)[C@H](CCC(N)=O)NC1=O)C(=O)N[C@@H](CC(=O)O)C(=O)N[C@@H](CCC(=O)O)C(=O)N[C@@H](CCC(=O)O)C(=O)N[C@@H](CCCNC(=N)N)C(=O)N[C@@H](CCCCN)C(=O)N3)NC(=O)[C@H](C(C)C)NC(=O)[C@H](CC(C)C)NC(=O)CNC(=O)[C@H](CCC(=O)O)NC2=O` (Ac-CQKFLAPCDEERKCCEGLVCKLWCKKKLW-NH2; disulfide 1-15, 8-20, 14-24), the IC50 in assay [1] is 10.3 µM; in assay [2] it was 15.2 µM; in assay [3] it was 0.074 µM. Moreover, in assay [4], the LED is 3.3 µM.

For the molecule `CC(=O)N[C@H]1CSSC[C@@H]2NC(=O)[C@@H]3CSSC[C@@H](C(=O)N[C@@H](CCCCN)C(=O)N[C@@H](CCCCN)C(=O)N[C@@H](CCCCN)C(=O)N[C@@H](CC(C)C)C(=O)N[C@@H](Cc4c[nH]c5ccccc45)C(N)=O)NC(=O)[C@H](Cc4c[nH]c5ccccc45)NC(=O)[C@H](CC(C)C)NC(=O)[C@H](C(C)C)NC(=O)[C@H](CSSC[C@H](NC(=O)[C@@H]4CCCN4C(=O)[C@H](C)NC(=O)[C@H](CC(C)C)NC(=O)[C@H](Cc4ccccc4)NC(=O)[C@H](CCCCN)NC(=O)[C@H](CCC(N)=O)NC1=O)C(=O)N[C@@H](CC(=O)O)C(=O)N[C@@H](CCCCN)C(=O)N[C@@H](/C=C/C(=O)O)C(=O)N[C@@H](CCCNC(=N)N)C(=O)N[C@@H](CCCCN)C(=O)N3)NC(=O)[C@H](CCC(=O)O)NC(=O)[C@H](CC(C)C)NC(=O)CNC(=O)[C@H](CCC(=O)O)NC2=O` (Ac-CQKFLAPCDK[X1]RKCCEGLECVLWCKKKLW-NH2; disulfide 1-15, 8-20, 14-24), the figures for the half-inhibitory concentration (IC50) in assay [1], in assay [2] and in assay [3] were above 17 µM, above 17 µM and 0.099 µM, respectively. Also, the LED in assay [4] was 33 µM.

On to `CC(=O)N[C@H]1CSSC[C@@H]2NC(=O)[C@@H]3CSSC[C@@H](C(=O)N[C@@H](CCCCN)C(=O)N[C@@H](CCCCN)C(=O)N[C@@H](CCCCN)C(=O)N[C@@H](CC(C)C)C(=O)N[C@@H](Cc4c[nH]c5ccccc45)C(N)=O)NC(=O)[C@H](Cc4c[nH]c5ccccc45)NC(=O)[C@H](CC(C)C)NC(=O)[C@H](CCCCN)NC(=O)[C@H](CSSC[C@H](NC(=O)[C@@H]4CCCN4C(=O)[C@H](C)NC(=O)[C@H](CC(C)C)NC(=O)[C@H](Cc4ccccc4)NC(=O)[C@H](CCCCN)NC(=O)[C@H](CCC(N)=O)NC1=O)C(=O)N[C@@H](CC(=O)O)C(=O)N[C@@H](CO)C(=O)N[C@@H](CCC(=O)O)C(=O)N[C@@H](CCCNC(=N)N)C(=O)N[C@@H](CCCCN)C(=O)N3)NC(=O)[C@H](CCC(=O)O)NC(=O)[C@H](CC(C)C)NC(=O)CNC(=O)[C@H](CCC(=O)O)NC2=O` (Ac-CQKFLAPCDSERKCCEGLECKLWCKKKLW-NH2; disulfide 1-15, 8-20, 14-24), for which the IC50 was above 17 µM in assay [1], above 17 µM in assay [2] and 0.063 µM in assay [3]. Besides, the LED in assay [4] was determined as 10 µM.
